For assay [1], the system named is Leishmania major. The assay is described as follows: Antileishmanial activity against Leishmania major promastigotes after 48 hrs by MTT method. The assay is classed as functional, organism-based. In general terms: Tetrazolium assays rely on reduction of a dye to a coloured formazan, in cell work by metabolically active cells.
For assay [2], the system named is Leishmania panamensis. Nature of the assay: Antileishmanial activity against Leishmania panamensis promastigotes after 48 hrs by MTT method. The format is functional, organism-based.
In assay [3] the test system is Leishmania guyanensis. Nature of the assay: Antileishmanial activity against Leishmania guyanensis promastigotes after 48 hrs by MTT method. The format is functional, organism-based.
Assay [4] in a line: Cytotoxicity against african green monkey COS7 cells by XTT method. The assay is classed as cell-based. Conditions: Chlorocebus aethiops, COS-7.
The subject of assay [5] is Huh-7. Nature of the assay: Cytotoxicity against human HuH7 cells by XTT method. The format is functional, cell-based.

pIC50: −log10 of the molar value. ≈ marks a conversion by molar mass, not a printed value. Peptide text beside a SMILES is read from it. * marks the point of attachment. Cbz = O=C(OCc1ccccc1)* Bounds are passed on as bounds.

The molecule `C=C[C@@]1(C)Cc2c(O)ccc(O)c2C[C@H]1C(=C)C` yielded a half-inhibitory concentration (IC50) in assay [1] of 4.5 µg/mL (≈ 18.4 µM).
With `CC1=C2C(=O)c3c(O)ccc(O)c3CC2(C)CCC1=O` (racemic), the IC50 came out at 13 µg/mL (≈ 47.7 µM) in assay [2]; 7 µg/mL (≈ 25.7 µM) in assay [3]; 51.7 µg/mL in assay [4]; 81.4 µg/mL (≈ 299 µM) in assay [1]; 71.8 µg/mL in assay [5].
As to `CC1(O)CCCC2(C)Cc3c(O)ccc(O)c3CC12` (racemic), the IC50 in assay [2] is 1.8 µg/mL (≈ 6.86 µM); in assay [3] it was 3 µg/mL (≈ 11.4 µM); in assay [4], above 100 µg/mL; in assay [1] it was 2.7 µg/mL (≈ 10.3 µM); in assay [5], 41.7 µg/mL.
On to `C/C(C=O)=C\CCC(C)(O)/C=C\c1cc(O)ccc1O` (racemic), for which the IC50 is above 100 µg/mL in assay [4], above 25 µg/mL in assay [1] and above 100 µg/mL in assay [5].
With `CC1=C2C(=O)c3c(OC(=O)c4ccc(Br)cc4)ccc(OC(=O)c4ccc(Br)cc4)c3CC2(C)CCC1=O` (racemic), the values for the IC50 in assay [4], in assay [1] and in assay [5] were above 100 µg/mL, 23.5 µg/mL (≈ 36.8 µM) and above 100 µg/mL, respectively.
Regarding `CC(=O)Oc1ccc(OC(C)=O)c2c1CC1(C)CCC(=O)C(C)=C1C2=O` (racemic), the IC50 in assay [4] was 50.7 µg/mL; in assay [1] it was 80.4 µg/mL (≈ 226 µM); in assay [5] it was 65.5 µg/mL.
For `C=C[C@@]1(C)Cc2c(OC(C)=O)ccc(OC(C)=O)c2C[C@H]1C(=C)C` [ACETYLCORDIAQUINOL C], the half-maximal inhibitory concentration (IC50) in assay [4] worked out at 20.1 µg/mL; in assay [1] it was 1.4 µg/mL (≈ 4.26 µM); in assay [5] it was 60.9 µg/mL.
Regarding `C/C(C=O)=C\CC/C(C)=C/Cc1cc(O)ccc1O` [ALLIODORIN], the IC50 came out at 1.8 µg/mL (≈ 6.91 µM) in assay [2]; 2 µg/mL (≈ 7.68 µM) in assay [3]; 31.9 µg/mL in assay [4]; 7 µg/mL (≈ 26.9 µM) in assay [1]; 44.8 µg/mL in assay [5].
For `C[C@@H]1[C@H](O)[C@@H](C)/C=C/C=C/C=C/C=C/C=C/C=C/C=C/[C@H](O[C@@H]2O[C@H](C)[C@@H](O)[C@H](N)[C@@H]2O)C[C@@H]2O[C@](O)(C[C@@H](O)C[C@@H](O)[C@H](O)CC[C@@H](O)C[C@@H](O)CC(=O)O[C@H]1C)C[C@H](O)[C@H]2C(=O)O` [AMPHOTERICIN B], the IC50 in assay [2], in assay [3] and in assay [1] was below 0.1 µg/mL each time.
As for `CC1=CCC[C@@]2(C)CC3=C(C[C@@H]12)C(=O)C=CC3=O` [CORDIACHROME A], the IC50 in assay [4] came out at 22.5 µg/mL; in assay [1] it was 4.1 µg/mL (≈ 16.9 µM); in assay [5] it was 61.1 µg/mL.
For `C=C1CCC[C@@]2(C)CC3=C(C[C@@H]12)C(=O)C=CC3=O` [CORDIACHROME B], the figures for the IC50 in assay [4], in assay [1] and in assay [5] were 14.6 µg/mL, 2.5 µg/mL (≈ 10.3 µM) and 71.5 µg/mL, respectively.
In the case of `C=C[C@@]1(C)CC2=C(C[C@H]1C(=C)C)C(=O)C=CC2=O` [Cordiachrome C], the IC50 in assay [2] was determined as 5.5 µg/mL (≈ 22.7 µM); in assay [3], 6 µg/mL (≈ 24.8 µM); in assay [1], 21.1 µg/mL (≈ 87.1 µM).
With `CC(C)C[C@@H](C=O)NC(=O)[C@H](CC(C)C)NC(=O)[C@H](CC(C)C)NC(=O)OCc1ccccc1` [MG-132] (Cbz-Leu-Leu-Leu-aldehyde), the pIC50 in assay [4] and in assay [5] was above 5.00 each time.

As a reminder, the IC50 is the point on the concentration scale where inhibition reaches its midpoint. A word on the pIC50: it is the IC50 on a negative log10 scale, so that one unit is a factor of ten.

(Values after ChEMBL document CHEMBL1142411, “Antileishmanial compounds from Cordia fragrantissima collected in Burma (Myanmar)” (J Nat Prod, 2008).)
